± gives the expanded uncertainty stated by the source.
How the values were obtained:
[1] = excess molar enthalpy (molar enthalpy of mixing); xn = mol fraction of the nth substance listed; settings: Liquid, Flow calorimetry
[2] = activity coefficient (dimensionless); of the first substance listed, at infinite dilution; xn = mol fraction of the nth substance listed; settings: 101 kPa, Liquid, x1 = 0

CCOC(C)OCC [1,1-diethoxyethane] + C1CCCCC1
[1], 323.15 K, 1308 kPa
Settings | excess molar enthalpy [kcal/mol]
x2 = 0.0648 | 0.0271 ± 0.000645
x2 = 0.1277 | 0.0506 ± 0.00115
x2 = 0.1887 | 0.0712 ± 0.00158
x2 = 0.2478 | 0.0882 ± 0.00194
x2 = 0.3052 | 0.103 ± 0.00225
x2 = 0.3609 | 0.114 ± 0.00239
x2 = 0.415 | 0.123 ± 0.00263
x2 = 0.4676 | 0.129 ± 0.00287
x2 = 0.5188 | 0.132 ± 0.00287
x2 = 0.5685 | 0.133 ± 0.00287
x2 = 0.6169 | 0.13 ± 0.00287
x2 = 0.664 | 0.126 ± 0.00263
x2 = 0.7099 | 0.12 ± 0.00263
x2 = 0.7546 | 0.111 ± 0.00239
x2 = 0.7981 | 0.0986 ± 0.00215
x2 = 0.8405 | 0.0849 ± 0.00186
x2 = 0.8819 | 0.0681 ± 0.00151
x2 = 0.9222 | 0.0481 ± 0.0011
x2 = 0.9616 | 0.0261 ± 0.000621

CCOC(C)OCC [1,1-diethoxyethane] + c1ccccc1
[1], 323.15 K, 1308 kPa
Settings | excess molar enthalpy [kcal/mol]
x2 = 0.0778 | -0.00197 ± 0.000201
x2 = 0.1511 | -0.00364 ± 0.000213
x2 = 0.2204 | -0.00483 ± 0.000225
x2 = 0.286 | -0.0057 ± 0.000239
x2 = 0.3481 | -0.00617 ± 0.000239
x2 = 0.4071 | -0.0064 ± 0.000239
x2 = 0.4631 | -0.0064 ± 0.000239
x2 = 0.5165 | -0.00619 ± 0.000239
x2 = 0.5672 | -0.00577 ± 0.000239
x2 = 0.6157 | -0.00527 ± 0.000232
x2 = 0.6619 | -0.0045 ± 0.00022
x2 = 0.7061 | -0.00365 ± 0.000213
x2 = 0.7484 | -0.00277 ± 0.000206
x2 = 0.7889 | -0.00181 ± 0.000198
x2 = 0.8278 | -0.000703 ± 0.000191
x2 = 0.865 | 7.17e-06
x2 = 0.9008 | 0.000676 ± 0.000191
x2 = 0.9351 | 0.00116 ± 0.000194
x2 = 0.9682 | 0.00114 ± 0.000194

CCC(C)(OC)OC [2,2-dimethoxybutane] + C1CCCCC1
[1], 303.15 K, 1204 kPa
Settings | excess molar enthalpy [kcal/mol]
x2 = 0.0623 | 0.0257 ± 0.000621
x2 = 0.1229 | 0.0471 ± 0.00108
x2 = 0.1821 | 0.0671 ± 0.00148
x2 = 0.2397 | 0.0844 ± 0.00186
x2 = 0.296 | 0.0985 ± 0.00215
x2 = 0.3509 | 0.11 ± 0.00239
x2 = 0.4045 | 0.119 ± 0.00263
x2 = 0.4568 | 0.125 ± 0.00263
x2 = 0.5079 | 0.128 ± 0.00287
x2 = 0.5578 | 0.129 ± 0.00287
x2 = 0.6066 | 0.128 ± 0.00287
x2 = 0.6542 | 0.123 ± 0.00263
x2 = 0.7008 | 0.116 ± 0.00263
x2 = 0.7464 | 0.107 ± 0.00234
x2 = 0.791 | 0.0956 ± 0.00208
x2 = 0.8346 | 0.0821 ± 0.00182
x2 = 0.8773 | 0.0657 ± 0.00146
x2 = 0.919 | 0.0468 ± 0.00105
x2 = 0.9599 | 0.0259 ± 0.000621

CCC(C)(OC)OC [2,2-dimethoxybutane] + c1ccccc1
[1], 303.15 K, 1342 kPa
Settings | excess molar enthalpy [kcal/mol]
x2 = 0.0747 | 0.00416 ± 0.000217
x2 = 0.1456 | 0.00676 ± 0.000263
x2 = 0.213 | 0.00906 ± 0.000287
x2 = 0.2772 | 0.0109 ± 0.000335
x2 = 0.3383 | 0.0128 ± 0.000359
x2 = 0.3966 | 0.0141 ± 0.000382
x2 = 0.4523 | 0.0151 ± 0.000406
x2 = 0.5056 | 0.0159 ± 0.00043
x2 = 0.5565 | 0.0165 ± 0.00043
x2 = 0.6053 | 0.0167 ± 0.00043
x2 = 0.6521 | 0.0165 ± 0.00043
x2 = 0.697 | 0.0162 ± 0.00043
x2 = 0.7402 | 0.0155 ± 0.000406
x2 = 0.7816 | 0.0145 ± 0.000406
x2 = 0.8215 | 0.0131 ± 0.000359
x2 = 0.8599 | 0.0112 ± 0.000335
x2 = 0.8968 | 0.00927 ± 0.000311
x2 = 0.9325 | 0.00651 ± 0.000239

c1ccccc1 [benzene] + CCOC(C)OCC
[2]
Settings | activity coefficient
293.21 K | 0.64 ± 0.05
303.16 K | 0.58 ± 0.05
313.11 K | 0.56 ± 0.05
323.13 K | 0.62 ± 0.05

C1CCCCC1 [cyclohexane] + CCOC(C)OCC
[2]
Settings | activity coefficient
293.08 K | 1.76 ± 0.13
303.18 K | 1.72 ± 0.12
313.12 K | 1.67 ± 0.12
323.14 K | 1.64 ± 0.12
